Measured values reported in US12486231B2, “Targeted nitroxide compounds and their use in treating ferroptosis-related diseases” (University of Pittsburgh—Of the Commonwealth System of …, priority 2019, dated 2025).
pEC50: −log10 of the molar value. Where two headings read alike, the source gives them in different places.

Legend:
HT-1080 cells = experiment: Protection against Erastin-induced ferroptosis in HT-1080 cells (CellTiter-Glo); assay type: cell-based; conditions: for Erastin-induced ferroptosis in HT-1080 cells: % activity remaining at 1 μM / % Activity remaining (value at a concentration of 1 μM): compound 1 μM; for % Activity remaining (value at a concentration of 1 μM): relative to vehicle and Erastin samples
Method: Compounds 6c, 6e, 6f, and 6i, as described above, were tested at a concentration of 1 μM, yielding values of 6c (85%), 6e (80%), 6f (77%), 6g (16%), 6h (78%), 6i (57%), and 6j (83%). For comparison, JP4-039 yielded a value of 56%. […] Briefly, 200 μL of a 5,000 cell/mL solution of HT-1080 cells were incubated for 24 h at 37° C. at 5% CO2, 95% humidity. The compounds were dissolved in DMSO and diluted to desired testing concentration. Compounds (1 μL) were added to culture medium (1 mL) containing 10 μM Erastin and incubated at 37° C., 5% CO2, 95% humidity for 24 h. CellTiter-Glo® reagent was added and the plate was incubated for 20 min at rt, sealed, centrifuged (1 min) at 1,000 rpm, shaken (1 min), and read in Enspire. % Activity remaining was determined as a function of vehicle sample and Erastin sample.
B. Compounds 6a-6n were tested for their protection against Erastin-induced ferroptosis in HT-1080 cells. Briefly, 200 μL of a 5,000 cell/mL solution of HT-1080 cells were incubated for 24 h at 37° C. at 5% CO2, 95% humidity. The compounds were dissolved in DMSO and diluted to desired testing concentration. Compounds (1 μL) were added to culture medium (1 mL) containing 10 μM Erastin and incubated at 37° C., 5% CO2, 95% humidity for 24 h. CellTiter-Glo® reagent was added and the plate was incubated for 20 min at rt, sealed, centrifuged (1 min) at 1,000 rpm, shaken (1 min), and read in Enspire. % Activity remaining was determined as a function of vehicle sample and Erastin sample.

[1] = 10 μM Erastin, 24 h, HT-1080 cells
[2] = 10 μM Erastin, 24 h, HT-1080 cells, read-out: EC50

Compound	logP (log P)	Erastin-induced ferroptosis in HT-1080 cells: % activity remaining at 1 μM (HT-1080 cells; [1])	% Activity remaining (value at a concentration of 1 μM) (HT-1080 cells; [1])	log P (log P)	other results
CC(C)(C)OC(=O)N[C@@H](/C=C/CC(=O)NC1CC(C)(C)N([O])C(C)(C)C1)c1ccccc1 [6b, tert-Butyl (S,E)-(5-((1-oxy-2,2,6,6-tetramethylpiperidin-4-yl)amino)-5-oxo-1-phenylpent-2-en-1-yl)carbamate]	2.92	–	–	–	pEC50 (HT-1080 cells; Homo sapiens, HT-1080, 24 h): 6.02
CC(C)C[C@@H](/C=C/CNC(=O)C1CC(C)(C)N([O])C(C)(C)C1)NC(=O)OC(C)(C)C [6i, tert-Butyl (S,E)-(1-(1-oxy-2,2,6,6-tetramethylpiperidine-4-carboxamido)-6-methylhept-2-en-4-yl)carbamate]	3.15	57%	57%	–	–
CC(C)C[C@@H](/C=C/[C@H](Cc1ccccc1)C(=O)NC1CC(C)(C)N(O)C(C)(C)C1)NC(=O)OC(C)(C)C [6j, tert-Butyl ((4S,7S,E)-7-benzyl-8-((1-oxy-2,2,6,6-tetramethylpiperidin-4-yl)amino)-2-methyl-8-oxooct-5-en-4-yl)carbamate]	4.93	83%	83%	–	pEC50 (HT-1080 cells; Homo sapiens, 10 μM Erastin, 24 h, HT-1080 cells, read-out: EC50): 6.68; pEC50 (HT-1080 cells; Homo sapiens, 10 μM Erastin, 24 h, HT-1080 cells, read-out: Erastin-induced ferroptosis in HT-1080 cells: EC50): 6.68
CC(C)C[C@@H](/C=C/[C@H](Cc1ccc(F)cc1)C(=O)NC1CC(C)(C)N(O)C(C)(C)C1)NC(=O)OC(C)(C)C [6k, tert-Butyl ((4S,7S,E)-7-(4-fluorobenzyl)-8-((1-oxy-2,2,6,6-tetramethylpiperidin-4-yl)amino)-2-methyl-8-oxooct-5-en-4-yl)carbamate]	5.09	–	–	–	–
CC(C)CC(C=CCC(=O)NC1CC(C)(C)N([O])C(C)(C)C1)NC(=O)OC(C)(C)C [6l, tert-Butyl (S,Z)-(8-((1-oxy-2,2,6,6-tetramethylpiperidin-4-yl)amino)-2-methyl-8-oxooct-5-en-4-yl)carbamate]	–	–	–	2.76	–
CC(C)C[C@@H](CCCC(=O)NC1CC(C)(C)N([O])C(C)(C)C1)NC(=O)OC(C)(C)C [6m, tert-Butyl (R)-(8-((1-oxy-2,2,6,6-tetramethylpiperidin-4-yl)amino)-2-methyl-8-oxooctan-4-yl)carbamate]	2.94	–	–	–	–
CCCCCCCC(=O)NC1CC(C)(C)N([O])C(C)(C)C1 [6n, N-(1-Oxy-2,2,6,6-tetramethylpiperidin-4-yl)octanamide]	2.83	–	–	–	–
tert-Butyl (S,E)-(1-(1-((1-oxy-2,2,6,6-tetramethylpiperidin-4-yl)carbamoyl)cyclopentyl)-5-methylhex-1-en-3-yl)carbamate [6f]	–	77%	77%	4.37	–
tert-Butyl (S,E)-(1-(1-((1-oxy-2,2,6,6-tetramethylpiperidin-4-yl)carbamoyl)cyclopropyl)-5-methylhex-1-en-3-yl)carbamate [6e]	–	80%	80%	3.53	pEC50 (HT-1080 cells; 10 μM Erastin, 24 h, HT-1080 cells, read-out: Erastin-induced ferroptosis in HT-1080 cells: EC50): 6.02
tert-Butyl (S,E)-(1-(4-((1-oxy-2,2,6,6-tetramethylpiperidin-4-yl)carbamoyl)tetrahydro-2H-pyran-4-yl)-5-methylhex-1-en-3-yl)carbamate [6g]	–	16%	16%	3.10	–
tert-Butyl (S,E)-(5-((1-oxy-2,2,6,6-tetramethylpiperidin-4-yl)amino)-4,4-dimethyl-5-oxo-1-phenylpent-2-en-1-yl)carbamate [6a]	–	–	–	4.19	–
tert-Butyl (S,E)-(7,7-dibenzyl-8-((1-oxy-2,2,6,6-tetramethylpiperidin-4-yl)amino)-2-methyl-8-oxooct-5-en-4-yl)carbamate [6d]	–	78%	–	7.24	pEC50 (HT-1080 cells; [2]): 6.76
tert-Butyl (S,E)-(7-(1-oxy-2,2,6,6-tetramethylpiperidine-4-carboxamido)-2,7-dimethyloct-5-en-4-yl)carbamate [6h]	–	78%	78%	3.68	pEC50 (HT-1080 cells; [2]): 6.24
tert-Butyl (S,E)-(8-((1-oxy-2,2,6,6-tetramethylpiperidin-4-yl)amino)-2,7,7-trimethyl-8-oxooct-5-en-4-yl)carbamate [6c]	–	85%	85%	4.03	–
